Usually IC50 stands for the concentration that gives 50% inhibition. A low value points to greater potency.

This passage reports IC50 results from patent US11584755B2 (IDEAYA BIOSCIENCES, INC., priority 2017, dated 2023).

hEXO1, Isoform1, sequence (Q9UQ84 whole entry, canonical isoform): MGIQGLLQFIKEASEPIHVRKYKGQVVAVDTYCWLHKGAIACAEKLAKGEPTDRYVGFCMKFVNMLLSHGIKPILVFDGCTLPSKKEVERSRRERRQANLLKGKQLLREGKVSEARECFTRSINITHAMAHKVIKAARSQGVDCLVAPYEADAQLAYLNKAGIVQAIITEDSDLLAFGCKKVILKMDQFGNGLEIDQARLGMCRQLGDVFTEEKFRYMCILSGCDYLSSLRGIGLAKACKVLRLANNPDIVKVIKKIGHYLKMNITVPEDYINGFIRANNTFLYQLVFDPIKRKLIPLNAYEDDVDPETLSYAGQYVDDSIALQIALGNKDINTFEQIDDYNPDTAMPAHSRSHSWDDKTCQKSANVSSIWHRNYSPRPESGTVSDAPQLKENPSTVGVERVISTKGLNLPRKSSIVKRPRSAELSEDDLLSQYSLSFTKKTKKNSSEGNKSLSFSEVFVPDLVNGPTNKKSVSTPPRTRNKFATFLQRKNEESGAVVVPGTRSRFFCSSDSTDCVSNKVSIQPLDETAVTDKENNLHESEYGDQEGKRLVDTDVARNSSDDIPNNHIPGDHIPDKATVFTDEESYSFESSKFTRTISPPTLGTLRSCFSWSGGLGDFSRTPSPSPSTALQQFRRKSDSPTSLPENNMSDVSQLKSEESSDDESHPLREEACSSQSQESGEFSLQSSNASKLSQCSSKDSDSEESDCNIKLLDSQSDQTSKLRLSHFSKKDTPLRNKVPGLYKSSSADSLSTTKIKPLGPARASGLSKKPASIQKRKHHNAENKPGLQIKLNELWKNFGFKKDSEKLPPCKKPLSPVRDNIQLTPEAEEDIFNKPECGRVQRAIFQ

In the first assay the target is hFEN1 (Homo sapiens (Human), UniProt P39748). Put plainly: Enzymatic IC50 assay, FAM-labeled DNA oligomer substrate, fluorescence intensity (FEN1). The note with it: hFEN1 70 pM, substrate 100 nM, reaction time 20 minutes, 23° C. In kind it is biochemical. The procedure: (§1) FEN1, EXO1 or XPG enzyme was incubated with compound or vehicle (DMSO) and the FAM-labeled DNA oligomer substrate in a microtiter plate. The stop buffer contains EDTA to stop the enzymatic reaction. The plate is read for fluorescence intensity. The high control (DMSO) with high fluorescence intensity represents no inhibition of enzymatic reaction while the low control (10 μM) with low fluorescence intensity represents full inhibition of enzymatic reaction.
hFEN1, sequence (P39748 whole entry, canonical isoform): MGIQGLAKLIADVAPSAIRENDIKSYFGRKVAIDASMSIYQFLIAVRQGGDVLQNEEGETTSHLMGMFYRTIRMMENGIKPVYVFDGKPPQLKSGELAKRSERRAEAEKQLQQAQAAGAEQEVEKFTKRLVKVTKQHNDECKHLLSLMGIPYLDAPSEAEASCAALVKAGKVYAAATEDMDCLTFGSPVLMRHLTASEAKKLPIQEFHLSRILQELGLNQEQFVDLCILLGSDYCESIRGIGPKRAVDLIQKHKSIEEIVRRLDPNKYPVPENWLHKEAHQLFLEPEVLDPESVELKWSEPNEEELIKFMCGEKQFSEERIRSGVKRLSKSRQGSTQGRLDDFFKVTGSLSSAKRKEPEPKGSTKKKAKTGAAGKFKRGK
(§2) • FEN1 • hFEN1: 70 pM • Substrate: 100 nM • Reaction time: 20 minutes • EXO1 • hEXO1: 6 nM, Isoforml • Substrate: 30 nM • Reaction time: 60 minutes • XPG • hXPG: 100 nM • Substrate: 100 nM • Reaction time: 120 minutes
(§3) Annealing Buffer: 50 mM Tris-HCl, 50 mM NaCl, 1 mM DTT Assay buffer: 50 mM Tris-HCl pH 8.0, 10 mM MgCl2, 0.01% BSA, 1 mM DTT Stop buffer: 50 mM EDTA in assay buffer Temperature: 23° C. Total volume: 40 μl Controls: • 0% inhibition control: DMSO • 100% inhibition control: 10 μM (final) 5-chloro-3-hydroxy-1,3-dihydroquinazoline-2,4-dione Enzyme Reaction and Detection: • 1. Prepare 25 μM intermediate stock of the substrate by diluting SEQ ID NO:1, SEQ ID NO:2, and SEQ ID NO:3 in annealing buffer, in a PCR tube. • 2. Place the PCR tube on a heat block, heat at 95° C. for 3 minutes, then drop in 0.2° C. increments over 2 minutes, stopping at 25° C. • 3. Remove the tube and let the tube cool at room temperature. • 4. Transfer 10 μL of 3× final concentration test compounds or DMSO to the appropriate wells of a microtiter plate. • 5. Transfer 10 μL of 3× final concentration enzyme in assay buffer or assay buffer alone to the appropriate wells. • 6. Incubate the plate at room temperature for 15 minutes. • 7. Transfer 10 μL of 3× substrate in assay buffer to all the test wells. • 8. Incubate the plate at room temperature for prescribed reaction time. • 9. Centrifuge the plate at 1000 rpm for 1 minute. • 10. Transfer 10 μL of stop buffer to all the test wells. • 11. Centrifuge the plate at 1000 rpm for 1 minute. • 12. Read the plate on a plate reader.
`O=C(O)c1c(O)c(=O)n(Cc2cccc([N+](=O)[O-])c2)c2ccsc12` [Example 6, 6-hydroxy-4-[(3-nitrophenyl)methyl]-5-oxo-thieno[3,2-b]pyridine-7-carboxylic acid] showed an IC50 of 250 to 750 nM.

As to `CC(=O)N1CCC(Cn2c(=O)c(O)c(C(=O)O)c3sccc32)CC1` [Example 9, 4-[(1-acetyl-4-piperidyl)methyl]-6-hydroxy-5-oxo-thieno[3,2-b]pyridine-7-carboxylic acid], the 50% inhibitory concentration (IC50) lay in the range of 2250 to 10000 nM.

On to `O=C(O)c1c(O)c(=O)n(Cc2cnc3c(-c4ccncc4)cccn23)c2ccsc12` [Example 31, 6-hydroxy-5-oxo-4-{[8-(pyridin-4-yl)imidazo[1,2-a]pyridin-3-yl]methyl}-4,5-dihydrothieno[3,2-b]pyridine-7-carboxylic acid], for which the IC50 is 2250 to 10000 nM.

Consider `O=C(O)c1c(O)c(=O)n(Cc2cncc(-c3ccccc3)c2)c2ccsc12` [Example 103, 6-hydroxy-5-oxo-4-[(5-phenylpyridin-3-yl)methyl]-4,5-dihydrothieno[3,2-b]pyridine-7-carboxylic acid], for which the IC50 is 250 to 750 nM.

Consider `O=C(O)c1c(O)c(=O)n(Cc2cncc3ccccc23)c2ccsc12` [Example 104, 6-hydroxy-4-(isoquinolin-4-ylmethyl)-5-oxo-4,5-dihydrothieno[3,2-b]pyridine-7-carboxylic acid], for which the IC50 was 2250 to 10000 nM.

`O=C(O)c1c(O)c(=O)n(Cc2cnn(-c3ccc(Cl)cc3)c2)c2ccsc12` [Example 105, 4-{[1-(4-chlorophenyl)-1H-pyrazol-4-yl]methyl}-6-hydroxy-5-oxo-4,5-dihydrothieno[3,2-b]pyridine-7-carboxylic acid] came in with an IC50 of 250 to 750 nM.

Consider `COc1ccccc1-n1cc(Cn2c(=O)c(O)c(C(=O)O)c3sccc32)cn1` [Example 106, 6-hydroxy-4-{[1-(2-methoxyphenyl)-1H-pyrazol-4-yl]methyl}-5-oxo-4,5-dihydrothieno[3,2-b]pyridine-7-carboxylic acid], for which the IC50 was < 200 nM.

Take `O=C(O)c1c(O)c(=O)n(Cc2cnn(-c3ccccc3[N+](=O)[O-])c2)c2ccsc12` [Example 107, 6-hydroxy-4-{[1-(2-nitrophenyl)-1H-pyrazol-4-yl]methyl}-5-oxo-4,5-dihydrothieno[3,2-b]pyridine-7-carboxylic acid]: the IC50 was < 200 nM.

`CS(=O)(=O)Nc1ccccc1-n1cc(Cn2c(=O)c(O)c(C(=O)O)c3sccc32)cn1` [Example 108, 6-hydroxy-4-{[1-(2-(methylsulfonamido)phenyl]-1H-pyrazol-4-yl}methyl)-5-oxo-4,5-dihydrothieno[3,2-b]pyridine-7-carboxylic acid] gave an IC50 of 250 to 750 nM.

Consider `CC(=O)Nc1ccccc1-n1cc(Cn2c(=O)c(O)c(C(=O)O)c3sccc32)cn1` [Example 109, 4-{[1-(2-acetamidophenyl)-1H-pyrazol-4-yl]methyl}-6-hydroxy-5-oxo-4,5-dihydrothieno[3,2-b]pyridine-7-carboxylic acid], for which the IC50 lay in the range of 750 to 2250 nM.

On to `N#Cc1ccc(-n2cc(Cn3c(=O)c(O)c(C(=O)O)c4sccc43)cn2)cc1` [Example 110, 4-{[1-(4-cyanophenyl)-1H-pyrazol-4-yl]methyl}-6-hydroxy-5-oxo-4,5-dihydrothieno[3,2-b]pyridine-7-carboxylic acid], for which the IC50 was < 200 nM.

Regarding `O=C(O)c1c(O)c(=O)n(Cc2cnn(-c3ccncc3)c2)c2ccsc12` [Example 112, 6-hydroxy-5-oxo-4-{[1-(pyridin-4-yl)-1H-pyrazol-4-yl]methyl}-4,5-dihydrothieno[3,2-b]pyridine-7-carboxylic acid], the 50% inhibitory concentration (IC50) was in the range of 250 to 750 nM.

`Nc1ccc(-n2cc(Cn3c(=O)c(O)c(C(=O)O)c4sccc43)cn2)cc1` [Example 118, 4-{[1-(4-aminophenyl)-1H-pyrazol-4-yl]methyl}-6-hydroxy-5-oxo-4,5-dihydrothieno[3,2-b]pyridine-7-carboxylic acid]: the IC50 is < 200 nM.

On to `O=C(O)c1c(O)c(=O)n(Cc2cnn(Cc3cncs3)c2)c2ccsc12` [Example 123, 6-hydroxy-5-oxo-4-{[1-(thiazol-5-ylmethyl)-1H-pyrazol-4-yl]methyl}-4,5-dihydrothieno[3,2-b]pyridine-7-carboxylic acid], for which the half-maximal inhibitory concentration (IC50) is < 200 nM.

As to `Cn1nccc1Cn1cc(Cn2c(=O)c(O)c(C(=O)O)c3sccc32)cn1` [Example 124, 6-hydroxy-4-({1-[(1-methyl-1H-pyrazol-5-yl)methyl]-1H-pyrazol-4-yl}methyl)-5-oxo-4,5-dihydrothieno[3,2-b]pyridine-7-carboxylic acid], the 50% inhibitory concentration (IC50) was < 200 nM.

As to `COc1cc(Cn2cc(Cn3c(=O)c(O)c(C(=O)O)c4sccc43)cn2)ccn1` [Example 129, 6-hydroxy-4-({1-[(2-methoxypyridin-4-yl)methyl]-1H-pyrazol-4-yl}methyl)-5-oxo-4,5-dihydrothieno[3,2-b]pyridine-7-carboxylic acid], the IC50 was < 200 nM.

As for `Cc1nn(C)cc1Cn1cc(Cn2c(=O)c(O)c(C(=O)O)c3sccc32)cn1` [Example 134, 4-({1-[(1,3-dimethyl-1H-pyrazol-4-yl)methyl]-1H-pyrazol-4-yl}methyl)-6-hydroxy-5-oxo-4,5-dihydrothieno[3,2-b]pyridine-7-carboxylic acid], the IC50 is < 200 nM.

Regarding `O=C(O)c1c(O)c(=O)n(Cc2cnn(Cc3cncnc3)c2)c2ccsc12` [Example 135, 6-hydroxy-5-oxo-4-{[1-(pyrimidin-5-ylmethyl)-1H-pyrazol-4-yl]methyl}-4,5-dihydrothieno[3,2-b]pyridine-7-carboxylic acid], the IC50 was < 200 nM.

On to `O=C(O)c1c(O)c(=O)n(Cc2cnn(CC(F)(F)F)c2)c2ccsc12` [Example 137, 6-hydroxy-5-oxo-4-{[1-(2,2,2-trifluoroethyl)-1H-pyrazol-4-yl]methyl}-4,5-dihydrothieno[3,2-b]pyridine-7-carboxylic acid], for which the half-inhibitory concentration (IC50) was < 200 nM.

Regarding `O=C(O)c1c(O)c(=O)n(Cc2cnn(Cc3cn4cccnc4n3)c2)c2ccsc12` [Example 139, 6-hydroxy-4-{[1-(imidazo[1,2-a]pyrimidin-2-ylmethyl)-1H-pyrazol-4-yl]methyl}-5-oxo-4,5-dihydrothieno[3,2-b]pyridine-7-carboxylic acid], the IC50 is < 200 nM.

For `O=C(O)c1c(O)c(=O)n(Cc2cnn(CC3CCS(=O)(=O)CC3)c2)c2ccsc12` [Example 145], the concentration for half-maximal inhibition (IC50) was in the range of 250 to 750 nM.

For the compound `O=C(O)c1c(O)c(=O)n(Cc2ccc(-c3ccccc3)nc2)c2ccsc12` [Example 147, 6-hydroxy-5-oxo-4-[(6-phenylpyridin-3-yl)methyl]-4,5-dihydrothieno[3,2-b]pyridine-7-carboxylic acid], the IC50 lay in the range of 250 to 750 nM.

As for `COc1cccc(Cn2cc(Cn3c(=O)c(O)c(C(=O)O)c4sccc43)nn2)c1` [Example 150, 6-hydroxy-4-{[1-(3-methoxybenzyl)-1H-1,2,3-triazol-4-yl]methyl}-5-oxo-4,5-dihydrothieno[3,2-b]pyridine-7-carboxylic acid], the concentration for half-maximal inhibition (IC50) is < 200 nM.

In turn, `COc1cc(-c2ccc(Cn3c(=O)c(O)c(C(=O)O)c4sccc43)cc2)ccn1` [Example 151, 6-hydroxy-4-(4-(2-methoxypyridin-4-yl)benzyl)-5-oxo-4,5-dihydrothieno[3,2-b]pyridine-7-carboxylic acid] gave a 50% inhibitory concentration (IC50) of 250 to 750 nM.

Regarding `COCCOc1ccc(Cn2c(=O)c(O)c(C(=O)O)c3sccc32)cc1` [Example 152, 6-hydroxy-4-[4-(2-methoxyethoxy)benzyl]-5-oxo-4,5-dihydrothieno[3,2-b]pyridine-7-carboxylic acid], the IC50 was < 200 nM.

With `CS(=O)(=O)COc1ccc(Cn2c(=O)c(O)c(C(=O)O)c3sccc32)cc1` [Example 153, 6-hydroxy-4-{4-[(methylsulfonyl)methoxy]benzyl}-5-oxo-4,5-dihydrothieno[3,2-b]pyridine-7-carboxylic acid], the IC50 was 250 to 750 nM.

Compound `COc1ccc(Cn2c(=O)c(O)c(C(=O)O)c3sc(CC(C)C)cc32)cc1` [Example 157, 6-hydroxy-2-isobutyl-4-(4-methoxybenzyl)-5-oxo-4,5-dihydrothieno[3,2-b]pyridine-7-carboxylic acid] showed a concentration for half-maximal inhibition (IC50) of 2250 to 10000 nM.

The target of the next assay is hEXO1, Isoform1 (Homo sapiens (Human), UniProt Q9UQ84). Briefly: Enzymatic IC50 assay, FAM-labeled DNA oligomer substrate, fluorescence intensity (EXO1). The class given is biochemical. The settings on record: hEXO1 6 nM, substrate 30 nM, reaction time 60 minutes, 23° C. The protocol:
as §1, §2, §3
`O=C(O)c1c(O)c(=O)n(Cc2cccc([N+](=O)[O-])c2)c2ccsc12` [Example 6, 6-hydroxy-4-[(3-nitrophenyl)methyl]-5-oxo-thieno[3,2-b]pyridine-7-carboxylic acid] gave an IC50 of 2250 to 10000 nM.

For `CC(=O)N1CCC(Cn2c(=O)c(O)c(C(=O)O)c3sccc32)CC1` [Example 9, 4-[(1-acetyl-4-piperidyl)methyl]-6-hydroxy-5-oxo-thieno[3,2-b]pyridine-7-carboxylic acid], the half-maximal inhibitory concentration (IC50) is 2250 to 10000 nM.

`O=C(O)c1c(O)c(=O)n(Cc2cnc3c(-c4ccncc4)cccn23)c2ccsc12` [Example 31, 6-hydroxy-5-oxo-4-{[8-(pyridin-4-yl)imidazo[1,2-a]pyridin-3-yl]methyl}-4,5-dihydrothieno[3,2-b]pyridine-7-carboxylic acid] had an IC50 of 2250 to 10000 nM.

On to `Cc1c(Cn2c(=O)c(O)c(C(=O)O)c3sccc32)cnn1C` [Example 159, 4-[(1,5-dimethyl-1H-pyrazol-4-yl)methyl]-6-hydroxy-5-oxo-4,5-dihydrothieno[3,2-b]pyridine-7-carboxylic acid], for which the concentration for half-maximal inhibition (IC50) lay within 2250 to 10000 nM.
